Results reported in patent US9624167B2, “N-(4-hydroxy-4-methyl-cyclohexyl)-4-phenyl-benzenesulfonamides and N-(4-hydroxy-4-methyl-cyclohexyl)-4-(2-pyridyl)benzenesulfonamides and their therapeutic use” (PIMCO 2664 LIMITED, priority 2013, dated 2017).

Assays:
Assay type in all cases: cell-based
Neutrophils = assay: Human primary leucocyte viability: neutrophils; conditions: 3 μM, 24 hours
Protocol: (§1) The effects of the reference compound (ABD735) on the viability of neutrophils, monocytes, CD4+ and CD8+ T-cells and B-lymphocytes was assessed under both resting and stimulated conditions. Resting conditions were used to assess likely effects on normal cells found in human blood, and stimulated conditions were used to assess the effects of the compound under disease conditions.
(§2) Effects on cell viability were assessed using flow cytometry. Flow cytometry is a laser-based, biophysical technology employed in cell counting, cell sorting, and biomarker detection, by suspending cells in a stream of fluid and passing them by an electronic detection apparatus. It allows simultaneous multi-parametric analysis of the physical and chemical characteristics of up to thousands of particles per second. The sorting of cells using flow cytometry requires the use of specific cell markers. To quantify cell numbers, counting beads are used as an internal standard. […] In addition, for B- and T-lymphocytes, cell proliferation was measured using a dye known as Cell Proliferation Dye (eFluor® 450). eFluor® 450 is an organic dye which can be conjugated to cell-specific markers. […]
(§3) The average results (n=3) for the reference compound (ABD735) were expressed as a fold change versus the average control value. […]

CD8+ T-lymphocytes = assay: Human primary leucocyte proliferation: CD8+ T-lymphocytes; conditions: 3 μM, 5 days
Protocol: as §2, with “standard. Counting beads are a calibrated suspension of microbeads which are added to a known volume of sample so the sample volume per bead is known.” for “standard.”
(§4) PBMCs (peripheral blood mononuclear cells) were collected from healthy donors (all female) and isolated by centrifugation on a layer of Ficoll Paque (GE Healthcare, UK). […] Following incubation, the cells were stained with either anti-human CD8 or CD4 before being analysed on a flow cytometer. […]
as §3

CD4+ T-lymphocytes [1] = assay: Human primary leucocyte proliferation: CD4+ T-lymphocytes; conditions: 3 μM, 5 days
Protocol: as §2, with “standard. Counting beads are a calibrated suspension of microbeads which are added to a known volume of sample so the sample volume per bead is known.” for “standard.”
as §4, §3

CD4+ T-lymphocytes [2] = assay: Human primary leucocyte viability: CD4+ T-lymphocytes; conditions: 3 μM, 48 hours
Protocol: as §1, §2, §3

B-lymphocytes = assay: Human primary leucocyte viability: B-lymphocytes; conditions: 3 μM
Protocol: as §1, §2, §3

## Cc1cc(S(=O)(=O)N[C@H]2CC[C@H](O)CC2)ccc1-c1ccc(F)cc1F [ABD735]
Neutrophils; Dexamethasone
  Fold change in viability: 0.8
Neutrophils; no stimulation
  Fold change in viability: 1.0
CD8+ T-lymphocytes; no stimulation
  Fold change in proliferation: 0.7
CD8+ T-lymphocytes; phytohaemagglutinin
  Fold change in proliferation: 0.3
CD4+ T-lymphocytes [1]; no stimulation
  Fold change in proliferation: 1
CD4+ T-lymphocytes [1]; phytohaemagglutinin
  Fold change in proliferation: 0.6
CD4+ T-lymphocytes [2]; no stimulation
  Fold change in viability: 0.9
CD4+ T-lymphocytes [2]; phytohaemagglutinin
  Fold change in viability: 0.6
B-lymphocytes; SAC/IL-2, 48 hours
  Fold change in viability: 1.1
B-lymphocytes; no stimulation, 48 hours
  Fold change in viability: 0.9
